Common to all, as to assay type: cell-based
For assay [1], the target named is T1, Human ASBT (Homo sapiens, UniProt Q12908).
T1 construct: expressed in transfected cells; kept under Puromycin selection
T1 sequence (Q12908 1-348): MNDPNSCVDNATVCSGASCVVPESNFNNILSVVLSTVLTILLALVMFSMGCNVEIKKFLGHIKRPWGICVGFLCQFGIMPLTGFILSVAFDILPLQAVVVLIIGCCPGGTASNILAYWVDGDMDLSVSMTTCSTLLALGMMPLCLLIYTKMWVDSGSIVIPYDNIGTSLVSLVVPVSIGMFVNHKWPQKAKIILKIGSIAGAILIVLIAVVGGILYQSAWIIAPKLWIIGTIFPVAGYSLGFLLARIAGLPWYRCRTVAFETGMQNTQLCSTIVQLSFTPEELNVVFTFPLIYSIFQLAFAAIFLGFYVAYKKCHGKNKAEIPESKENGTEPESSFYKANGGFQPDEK
Kind of assay: ASBT (h/m) assay: 3H-taurocholic acid uptake in human ASBT-overexpressing cells. The conditions noted are these: 0.25 μM 3H-taurocholic acid and 5 μM cold taurocholic acid, 20 minutes, read-out: hASBT IC50. In short, it runs like this:
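ASBT-overexpressing cells, seeded 48 h earlier, took up 0.25 µM 3H-taurocholic acid plus 5 µM cold taurocholate for 20 min at 37 °C with inhibitor (10-point 3-fold series, top 10 µM, 0.2% DMSO). Ice stop, washes with cold 1 mM taurocholate in HEPES-HBSS pH 7.4, scintillation counting.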

Assay [2] deals with T2, Human LBAT (Homo sapiens, UniProt Q14973).
T2 construct: expressed in transfected cells; kept under Geneticin selection
T2 sequence (Q14973 1-349): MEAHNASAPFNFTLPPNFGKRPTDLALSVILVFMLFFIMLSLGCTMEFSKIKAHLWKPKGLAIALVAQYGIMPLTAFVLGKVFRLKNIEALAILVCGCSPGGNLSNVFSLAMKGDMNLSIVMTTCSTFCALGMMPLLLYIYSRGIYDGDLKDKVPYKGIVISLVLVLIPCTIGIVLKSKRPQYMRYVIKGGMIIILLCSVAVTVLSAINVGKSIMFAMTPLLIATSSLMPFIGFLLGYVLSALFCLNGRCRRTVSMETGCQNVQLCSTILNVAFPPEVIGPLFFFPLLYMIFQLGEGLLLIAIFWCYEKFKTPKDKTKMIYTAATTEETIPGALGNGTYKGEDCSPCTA
In words: LBAT (h/m) assay: 3H-taurocholic acid uptake in human LBAT-overexpressing cells. The conditions noted are these: 0.3 μM 3H-taurocholic acid and 7.5 μM cold taurocholic acid, 20 minutes, read-out: hLBAT IC50. In short, it runs like this:
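LBAT-overexpressing cells, serum-free MEM-alpha, 20 min at 37° C with inhibitor (3-fold, 10-point) plus 0.3 μM 3H-taurocholic acid and cold taurocholic acid (7.5 μM human; 25 μM mouse), 0.2% DMSO. Stopped on ice, washed with 1 mM unlabelled taurocholate; uptake by scintillation counting.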

For assay [3], the system named is HepaRG cells. In words: HepaRG-based assay: 3H-taurocholic acid uptake in differentiated HepaRG cells. As to conditions: Homo sapiens, HepaRG, 0.3 μM 3H-taurocholic acid and 7.5 μM cold taurocholic acid, 30 minutes. The method, boiled down:
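Differentiated HepaRG cells cultured 7 days post-seeding were exposed for 30 min at 37 °C to 0.3 μM 3H-taurocholic acid plus 7.5 μM cold taurocholic acid with inhibitor (3-fold dilutions, 0.2% DMSO). Uptake was stopped on ice, washed with 1 mM unlabelled taurocholic acid, and counted by scintillation.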

As to `CCCCC1(CCCC)CN(c2ccc(NC(=O)OC(C)(C)C)cc2)c2cc(SC)c(O/C=C(\F)C(=O)O)cc2S(=O)(=O)C1` [Example 26, (Z)-3-((5-(4-((tert-butoxycarbonyl)amino)phenyl)-3,3-dibutyl-7-(methylthio)-1,1-dioxido-2,3,4,5-tetrahydro-1,5-benzothiazepin-8-yl)oxy)-2-fluoroacrylic Acid], the IC50 in assay [1] is 3240 nM; in assay [2] it was 53 nM; in assay [3], 477 nM.
Take `CCCCC1(CCCC)CN(c2ccc(NC(=O)C(C)(C)C)cc2)c2cc(SC)c(O/C=C/C(=O)O)cc2S(=O)(=O)C1` [Example 27, (E)-3-((3,3-dibutyl-7-(methylthio)-1,1-dioxido-5-(4-pivalamidophenyl)-2,3,4,5-tetrahydro-1,5-benzothiazepin-8-yl)oxy)acrylic Acid]: the values for the IC50 in assay [1], in assay [2] and in assay [3] were 4800 nM, 46 nM and 350 nM, respectively.
As to `CCCCC1(CCCC)CN(c2ccc(NC(=O)C(C)(C)C)cc2)c2cc(SC)c(O/C=C(\F)C(=O)O)cc2S(=O)(=O)C1` [Example 28, (Z)-3-((3,3-dibutyl-7-(methylthio)-1,1-dioxido-5-(4-pivalamidophenyl)-2,3,4,5-tetrahydro-1,5-benzothiazepin-8-yl)oxy)-2-fluoroacrylic Acid], the IC50 came out at 4450 nM in assay [1], 13 nM in assay [2] and 89 nM in assay [3].
As to `CCCCC1(CCCC)CN(c2ccc(C(F)(F)F)cc2)c2cc(SC)c(O/C=C/C(=O)O)cc2S(=O)(=O)C1` [Example 32, (E)-3-((3,3-dibutyl-7-(methylthio)-1,1-dioxido-5-(4-(trifluoromethyl)phenyl)-2,3,4,5-tetrahydro-1,5-benzothiazepin-8-yl)oxy)acrylic Acid], the IC50 in assay [1] was 209 nM; in assay [2] it was 506 nM; in assay [3] it was 672 nM.
For `CCCCC1(CCCC)CN(c2ccc(NC(=O)C3CCCC3)cc2)c2cc(SC)c(O/C=C/C(=O)O)cc2S(=O)(=O)C1` [Example 37, (E)-3-((3,3-dibutyl-5-(4-(cyclopentanecarboxamido)phenyl)-7-(methylthio)-1,1-dioxido-2,3,4,5-tetrahydro-1,5-benzothiazepin-8-yl)oxy)acrylic Acid], in that order: 2000 nM, 45 nM and 592 nM.
`CCC1(CC)CN(c2ccccc2)c2cc(SC)c(O/C=C/C(=O)O)cc2S(=O)(=O)C1` [Example 39, (E)-3-((3,3-diethyl-7-(methylthio)-1,1-dioxido-5-phenyl-2,3,4,5-tetrahydro-1,5-benzothiazepin-8-yl)oxy)acrylic Acid]: the results for the IC50 in assay [1], in assay [2] and in assay [3] were 796 nM, 75 nM and 399 nM, respectively.
Regarding `CCCCC1(CCCC)CN(c2ccc(NC(=O)CCC)cc2)c2cc(SC)c(O/C=C/C(=O)O)cc2S(=O)(=O)C1` [Example 40, (E)-3-((3,3-dibutyl-5-(4-butyramidophenyl)-7-(methylthio)-1,1-dioxido-2,3,4,5-tetrahydro-1,5-benzothiazepin-8-yl)oxy)acrylic Acid], the IC50 turned out to be 4550 nM in assay [1], 108 nM in assay [2] and 1510 nM in assay [3].
Regarding `CCCCC1(CCCC)CN(c2ccccc2)c2ccc(O/C=C(\F)C(=O)O)cc2S(=O)(=O)C1` [Example 45, (Z)-3-((3,3-dibutyl-1,1-dioxido-5-phenyl-2,3,4,5-tetrahydro-1,5-benzothiazepin-8-yl)oxy)-2-fluoroacrylic Acid], the concentration for half-maximal inhibition (IC50) came out at 1460 nM in assay [1], 201 nM in assay [2] and 3160 nM in assay [3].
Taken in the same sequence, the figures for `CCCCC1(CCCC)CN(c2ccccc2)c2cc(Cl)c(O/C=C(\F)C(=O)O)cc2S(=O)(=O)C1` [Example 53, (Z)-3-((3,3-dibutyl-7-chloro-1,1-dioxido-5-phenyl-2,3,4,5-tetrahydro-1,5-benzothiazepin-8-yl)oxy)-2-fluoroacrylic Acid] were 280 nM, 62 nM and 800 nM.

Usually IC50 stands for the concentration at which inhibition is half-maximal.
